The text below walks through data of paper PMC12040169 (PLOS Biology, 2025).

The viability is a read-out of living cells in per cent, often relative to untreated cells.

The nature of this data set: in vitro. Conditions: human, hela cells, % viability.

On to `O=C(CSc1ccc2ccccc2n1)NNC(=O)c1cccc([N+](=O)[O-])c1` [CBK262506], for which the viability at 28.5 h, 10 µM is 91.7%.
`O=C(Cn1c(C2CCCNC2)cc2cccnc21)N1CCCCCC1` (stereo not shown) [CBK285014]: the viability at 28.5 h, 10 µM was 86.3%.
The same measure, in the same setting: the same measure for `CN(C)C(=O)c1ccc(-c2ccc3c(c2)OC(C2CCN(C(=O)OCc4ccccc4)CC2)OC3)cc1` (stereo not shown) [CBK144649]: 85.5%; for `O=C(CCC(=O)c1ccc(F)cc1)Nc1cccnc1` [CBK266901]: 89.4%; for `Cc1ccc(S(=O)(=O)Nc2ccc(Nc3cc(-c4ccsc4)ncn3)cc2)cc1` [CBK037792]: 96.5%.
`c1csc(-c2ccc3c(c2)COC2(CCNCC2)O3)c1` [CBK060871]: where the note is “bulk resorufin, single well”, the viability at 28.5 h, 10 µM turned out to be 90.3%.
With `Cc1nn(C)cc1S(=O)(=O)N1CCCC(c2cccc(Cc3ccc(Cl)cc3)n2)C1` (stereo not shown) [CBK286506], the viability at 28.5 h, 10 µM was found to be 88.4%.
Turning to `COc1ccc(/C=C/C(=O)NCc2ccc(S(N)(=O)=O)cc2)cc1OC` [CBK265483], the viability at 28.5 h, 10 µM was 91%.
As for `CC(C)c1ccc(S(=O)(=O)NCC(C)(C)CO)cc1` [CBK043547], the viability at 28.5 h, 10 µM turned out to be 110%.
Still for that read-out and setting: then `COc1ccc(CCCC(=O)Nc2cc(N3CCNCC3)ncn2)cc1OC` [CBK107856], with 93.9%; and `Cn1cnnc1SCC(=O)N1CCc2ccccc21` [CBK287576], with 82.7%.
With `CCN1CCC2(CCC1=O)CN(Cc1noc(CC(C)C)n1)CCN2C` (stereo not shown) [CBK306971], the viability at 28.5 h, 10 µM came out at 90.5%.
Regarding `COc1ccc(C(CNCC(O)COc2cccc3c2CCCC3)c2ccccc2)cc1` (stereo not shown) [CBK028144], the viability at 28.5 h, 10 µM was found to be 105%.
Take `O=C(COc1ccc(-c2cnc3ccccc3n2)cc1)c1cccc([N+](=O)[O-])c1` [CBK266367]: the viability at 28.5 h, 10 µM was found to be 86.8%.
Take `N/C(=N/O)c1ccc(-n2cncn2)nc1` [CBK020936]: the viability at 28.5 h, 10 µM came to 104%.
The same measure, in the same setting: then `O=C(C1CCC1)N1CCC(c2nc(Cc3cccs3)no2)C1` (stereo not shown) [CBK283028], with 90.9%; and `CCn1nc(-c2ccc(Cl)cc2)c2c(=O)n(C)c(=O)[nH]c21` [CBK287845], with 108%; and `C=CCNc1nccnc1-c1cc(OC)c(OC)c(OC)c1` [CBK036872], with 102%.
The same measure, in the same setting: then `COc1ccc(C2c3cc(OC)c(OC)cc3CC(=O)N2c2cccc(C(=O)O)c2)cc1OC` (stereo not shown) [CBK296118], with 94.1%; and `O=c1[nH]c2ncc(-c3cccc4cccnc34)nc2n1Cc1cccnc1` [CBK064305], with 58.9%; and `O=C(Cc1ccc2c(c1)CCCO2)Nc1c(OCCn2cccn2)ccc2ccccc12` [CBK285679], with 96.9%.
Same read-out and setting: then `CC(C)NC(=O)C1CN(Cc2ccccc2)CC12CCc1ccccc1C2NC(=O)CN` (stereo not shown) [CBK283093], with 79.4%.
Consider `Cc1ccc(N2CCCC2=O)cc1S(=O)(=O)NC1C2CCCCC21` (stereo not shown) [CBK282840], for which the viability at 28.5 h, 10 µM worked out at 69%.
On to `c1ccc(CN2CCN(c3cncc(-c4cccs4)n3)CC2)nc1` [CBK065734], for which the viability at 28.5 h, 10 µM was found to be 98.1%.
The same measure, in the same setting: the same measure for `CCCS(=O)(=O)N1CCC2(CCCN(Cc3cccc(F)c3F)C2=O)C1` (stereo not shown) [CBK306694]: 90.8%; for `Cc1cc(O)c(-c2n[nH]c3c2C(c2ccccc2F)N(Cc2cccnc2)C3=O)cc1C` (stereo not shown) [CBK268831]: 89.8%; for `Cc1ccc(S(=O)(=O)N2CC[C@H](c3nnc(-c4ccccc4)o3)C2)cc1` [CBK289405]: 111%.
Regarding `COc1ccc(-c2cc(-c3ccccc3)nc(N/N=C/c3ccc(O)c(C)c3O)n2)cc1` [CBK261721], the viability at 28.5 h, 10 µM was determined as 101%.
For the compound `COc1ccccc1-c1ccc(CC2(C(=O)NCc3cccc(F)c3)CCOCC2)cc1` [CBK286521], the viability at 28.5 h, 10 µM worked out at 92.6%.
Still for that read-out and setting: then `Cc1nnc(SCCCNC(=O)C2CC(=O)N(Cc3ccccn3)C2)s1` (stereo not shown) [CBK307529], with 101%.
The same measure, in the same setting: then `C=CCOc1nc2c(=O)[nH]c(NC(=O)C(C)C)nc2n1[C@H]1C[C@@H](O)[C@@H](CO)O1` [CBK201216], with 100%; and `CC/C(=N\C(N)=O)c1ccccc1` [CBK009865], with 82.9%; and `O=C(CN1CCOCC1)NC1(c2ccccc2)CCCCC1` [CBK059545C], with 85.6%.
In the case of `O=C(O)C(=O)N1CCN(C(=O)c2cc3ccccc3[nH]2)CC1` [CBK288433], the viability at 28.5 h, 10 µM was 107%.
Turning to `COc1ccc(NC(=O)CSc2nc3ccccc3n2-c2ccccc2)c([N+](=O)[O-])c1` [CBK266060], the viability at 28.5 h, 10 µM is 91.8%.
Regarding `O=C(Cn1c(C(F)(F)F)nc2ccccc21)NCCN1CCCC1` [CBK267150], the viability at 28.5 h, 10 µM stood at 97.8%.
For `COc1ccc(C(=O)Nc2ccccc2C(=O)Nc2cccc([N+](=O)[O-])c2)cc1` [CBK265894], the viability at 28.5 h, 10 µM came out at 101%.
As to `COCCNCc1ccc(OCc2ccccc2)cc1` [CBK270133C], the viability at 28.5 h, 10 µM was found to be 91.1%.
With `N#C/C(=C/c1cc(Cl)c(OCc2ccc([N+](=O)[O-])cc2)c(Cl)c1)c1ccc(C(=O)O)cc1` [CBK269098], the viability at 28.5 h, 10 µM is 105%.
On to `COC1CCCC(C(=O)N2CCC(c3onc4c3CCCC4)CC2)C1` (stereo not shown) [CBK284598], for which the viability at 28.5 h, 10 µM worked out at 94.3%.
Take `CC(=O)NCCSc1nccc(C(F)(F)F)n1` [CBK105301]: the viability at 28.5 h, 10 µM was determined as 102%.
As to `CC(c1ccc(F)c(F)c1)N(C)C(=O)Cn1[nH]c(=O)ccc1=O` (stereo not shown) [CBK305810], the viability at 28.5 h, 10 µM was found to be 81.2%.
Still for that read-out and setting: the same measure for `CC(C)N(Cc1cnn(C)c1)C(=O)c1cc(C2CC2)nc2ccccc12` [CBK305325]: 103%; for `CCc1cc(=O)[nH]c(-c2ccc(N3CC(C(N)=O)CCC3C)nc2)n1` (stereo not shown) [CBK306448]: 93.1%.
For the compound `Cc1cc(F)ccc1OC1(C(=O)O)CCN(Cc2ccoc2)CC1` [CBK307187], the viability at 28.5 h, 10 µM is 104%.
Still for that read-out and setting: the same measure for `COc1ccc(-c2nc3ccccc3o2)cc1NC(=O)C(C)Oc1ccc(Cl)cc1Cl` (stereo not shown) [CBK266787]: 76.4%; for `CCOC(=O)N1CCN(CC2CCCCN2)CC1` (stereo not shown) [CBK022780G]: 83.4%; for `O=C(Nc1cccc(Br)c1)/C(=C\c1cccnc1)NC(=O)c1ccccc1` [CBK261450]: 85.8%.
The same measure, in the same setting: then `CC(=O)NCCn1cc2c(n1)[C@H]1CN(C(=O)CC(C)(C)C)C[C@H]1CC2` [CBK284592], with 93.8%; and `COc1ccc2c(c1)cc(C(=O)N1CCCn3cncc3C1)n2C` [CBK306516], with 96.1%; and `Cc1cc(COc2nc3ccccc3nc2NCCC(C)O)no1` (stereo not shown) [CBK173999], with 95.7%.
Same read-out and setting: the same measure for `CN1CCN(c2ccc([N+](=O)[O-])c(NCCCO)c2)CC1` [CBK261846C]: 86.5%.
For `COc1ccc(CNC(=O)c2sc3ncnc(N(C)C4CCCCC4)c3c2C)cc1` [CBK294431], the viability at 28.5 h, 10 µM came to 78.9%.
Same read-out and setting: the same measure for `COc1ccc(CCNC(=S)N2CCN(S(C)(=O)=O)CC2)cc1OC` [CBK266917]: 115%; for `Cc1ccc(C#N)c(NS(=O)(=O)c2cc(C)c(Cl)cc2C)c1` [CBK045250]: 96.6%.
Take `CS(=O)(=O)c1sc(C(=O)NC(=S)Nc2cccc(C(F)(F)F)c2)c2c1C=CCC2` [CBK005654]: the viability at 28.5 h, 10 µM is 96.9%.
Same read-out and setting: then `COCCSCc1cn2cc(Br)ccc2n1` [CBK306361], with 96.5%; and `Nc1nnc(SCC(=O)N2CCN(C(c3ccccc3)c3ccccc3)CC2)s1` [CBK266320], with 99.2%; and `OCCN1CSC(=S)N(CCc2ccc(Cl)cc2)C1` [CBK015713], with 122%.
Turning to `COc1ccc(C(=O)c2sc3nc(C)cc(C)c3c2N)cc1` [CBK115362], the viability at 28.5 h, 10 µM was 87.7%.
Same read-out and setting: the same measure for `CCc1nc(CCn2ccc3nc(OC)c(C#N)cc3c2=O)no1` [CBK307668]: 94.1%.
`CCc1noc(C)c1C(=O)NCCN(C)C` [CBK268118]: the viability at 28.5 h, 10 µM was determined as 97.5%.
As for `Cc1cc(C(=O)Nc2cc(-c3nc4ncccc4o3)ccc2Cl)ccc1[N+](=O)[O-]` [CBK268700], the viability at 28.5 h, 10 µM stood at 95.1%.
Same read-out and setting: the same measure for `COc1cc(NC(=O)CS(=O)(=O)c2ccccc2)c(OC)cc1Cl` [CBK269471]: 86.7%; for `Cc1cn(CC(=O)N2CCC3(CCN(Cc4ccccc4)C3)C2)c(=O)[nH]c1=O` (stereo not shown) [CBK136840]: 91.6%; for `CCN1CCC2(CC1)NC(=O)Cc1ccccc12` [CBK039810]: 96%.
Regarding `CC(C)(C)NC(=O)CN1C(=O)N2CCCN=C2c2ccccc21` [CBK284404], the viability at 28.5 h, 10 µM worked out at 89.7%.
The same measure, in the same setting: the same measure for `COc1ccc(CCNCC2OCCc3cccc(OC)c32)cc1OC` (stereo not shown) [CBK024032C]: 118%.
The same measure, in the same setting: the same measure for `CC(=O)N1CCCC[C@H]2[C@H]1C[C@@H](c1ccccc1)N2C(=O)CN1CCCCCC1` [CBK286120]: 117%.
On the same count and under the same terms, then `Cc1nc(S(=O)(=O)Nc2nc(C(C)C)ns2)cn1C` [CBK051323], with 107%.
In the case of `CS(=O)(=O)NCC1CCCN(C(=O)Nc2cccc(Cl)c2)C1` (stereo not shown) [CBK305736], the viability at 28.5 h, 10 µM worked out at 79.5%.
Still for that read-out and setting: the same measure for `CC(=O)N1CCN(C(=O)C[C@@H]2C[C@@H](C(C)C)[C@H](CC#N)C=C2C)CC1` [CBK289214]: 103%; for `O=C(C1CCCO1)N1CCCC(c2cc3cccnc3[nH]2)C1` (stereo not shown) [CBK284978]: 101%; for `c1ccc2c(c1)CCN(Cc1ncc[nH]1)C2` [CBK126402]: 94.7%.
Take `CCc1ccc(OCC(O)Cn2nnc(-c3ccc(CN4CCC(C)CC4)cc3)n2)cc1` (stereo not shown) [CBK161437T]: the viability at 28.5 h, 10 µM came out at 111%.
Same read-out and setting: then `c1ccc(CCN2CCC(Oc3cncc(OCCN4CCOCC4)n3)C2)cc1` (stereo not shown) [CBK084497], with 87.6%; and `O=c1[nH]c(=O)c2cc(S(=O)(=O)NCc3ccccc3CN3CCCC3)ccc2[nH]1` [CBK286395], with 108%.
Still for that read-out and setting: then `CC(C)Cn1cncc1CNS(=O)(=O)c1cccc(C(=O)N2CCC2)c1` [CBK307068], with 90.3%.
Still for that read-out and setting: then `CN1CCN(C2=NC(=O)CC(C(=O)Nc3ccccc3)N2)CC1` (stereo not shown) [CBK267884], with 97.1%.
